The compounds below were run against T1, human chemokine receptor 2 isoform B (CCR2B) (Homo sapiens, UniProt P41597) (assay: Calcium mobilization assay (FLIPR, MCP-1 stimulated CHOK1-CCR2B-A5 cells)). Conditions: 20 nM MCP-1, antagonist activity, read-out: IC50 (inhibitor concentration required for 50% inhibition of specific calcium increases).
T1 construct: host or cells: CHO-K1 (CHOK1-CCR2B-A5)
T1 sequence (P41597 1-360 isoform P41597-2): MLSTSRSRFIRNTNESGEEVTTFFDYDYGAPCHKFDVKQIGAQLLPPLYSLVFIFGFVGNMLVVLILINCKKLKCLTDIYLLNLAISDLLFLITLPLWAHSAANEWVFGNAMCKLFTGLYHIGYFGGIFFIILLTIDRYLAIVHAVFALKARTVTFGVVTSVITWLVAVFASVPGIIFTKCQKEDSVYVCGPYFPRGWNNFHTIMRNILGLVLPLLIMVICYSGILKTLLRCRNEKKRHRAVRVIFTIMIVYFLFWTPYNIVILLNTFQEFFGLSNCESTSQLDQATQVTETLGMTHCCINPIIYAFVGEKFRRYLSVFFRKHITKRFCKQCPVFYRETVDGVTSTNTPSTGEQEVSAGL
Assay type: cell-based
Description: Calcium Mobilization Assay
CHOK1-CCR2B-A5 cells (from Euroscreen) stably overexpressing the human chemokine receptor 2 isoform B were cultured in Nutrient Hams F12 medium supplemented with 5% FBS, 100 U/ml penicillin, 100 μg/ml streptomycin, 400 μg/ml G418 and 5 μg/ml puromycin.
For the assay cells were grown overnight in 384-well black clear flat bottom polystyrene plates (Costar) at 37° C. at 5% CO2. After washing with DMEM, 20 mM Hepes, 2.5 mM probenecid, 0.1% BSA (DMEM assay buffer) cells were loaded with 4 μM Fluo-4 in the same DMEM assay buffer for 2 hours at 30° C. Excess dye was removed and cells were washed with DMEM assay buffer. 384-well compound plates were prepared with DMEM assay buffer/0.5% DMSO with or without various concentrations of test compounds. Usually compounds were tested for agonist and antagonist activity.
Test compounds were added to the assay plate and agonist activity was monitored as fluorescence for 80 seconds with a FLIPR (488 nm excitation; 510-570 nm emission; Molecular Devices). After 20-30 min. of incubation at 30° C., 20 nM MCP-1 (R&D; Roche) was added and fluorescence was monitored again for 80 seconds. Increases in intracellular calcium are reported as maximum fluorescence after agonist exposure minus basal fluorescence before exposure. Antagonist activity is indicated as inhibitor concentration required for 50% inhibition of specific calcium increases.

| Structure (SMILES) | IC50 |
| --- | --- |
| Cc1cc(-c2cccc(C(F)(F)F)c2)c(-c2cccnc2)nc1C(=O)N1CCC(N2CCCC2)CC1 [Example 16, [5-Methyl-3-(3-trifluoromethyl-phenyl)-[2,3′]bipyridinyl-6-yl]-(4-pyrrolidin-1-yl-piperidin-1-yl)-methanone] | 4.2 nM |
| CC(=O)Nc1nc(C(=O)N2CCC(N3CCCC3)CC2)c(C)cc1-c1cccc(C(F)(F)F)c1 [Example 11, N-[5-Methyl-6-(4-pyrrolidin-1-yl-piperidine-1-carbonyl)-3-(3-trifluoromethyl-phenyl)-pyridin-2-yl]-acetamide] | 71 nM |
| Cc1cc(-c2cccc(C(F)(F)F)c2)c(C(=O)O)nc1C(=O)N1CCC(N2CCCC2)CC1 [Example 47, 5-Methyl-6-(4-pyrrolidin-1-yl-piperidine-1-carbonyl)-3-(3-trifluoromethyl-phenyl)-pyridine-2-carboxylic acid] | 310 nM |
| Cc1cc(-c2cccc(C(F)(F)F)c2)nc(N)c1C(=O)N1CCC(N2CCCC2)CC1 [Example 19, [2-Amino-4-methyl-6-(3-trifluoromethyl-phenyl)-pyridin-3-yl]-(4-pyrrolidin-1-yl-piperidin-1-yl)-methanone] | 64 nM |
| Cc1cc(-c2cccc(C(F)(F)F)c2)c(C(N)=O)nc1C(=O)N1CCC(N2CCCC2)CC1 [Example 43, 5-Methyl-6-(4-pyrrolidin-1-yl-piperidine-1-carbonyl)-3-(3-trifluoromethyl-phenyl)-pyridine-2-carboxylic acid amide] | 25 nM |
| Cc1cc(-c2cccc(C(F)(F)F)c2)c(-c2cnc(O)nc2O)nc1C(=O)N1CCC(N2CCCC2)CC1 [Example 54, [6-(2,4-Dihydroxy-pyrimidin-5-yl)-3-methyl-5-(3-trifluoromethyl-phenyl)-pyridin-2-yl]-(4-pyrrolidin-1-yl-piperidin-1-yl)-methanone] | 120 nM |
| Cc1cc(-c2cc(F)cc(C(F)(F)F)c2)cnc1C(=O)N1CCC(N2CCCC2)CC1 [Example 37, [5-(3-Fluoro-5-trifluoromethyl-phenyl)-3-methyl-pyridin-2-yl]-(4-pyrrolidin-1-yl-piperidin-1-yl)-methanone] | 36 nM |
| COc1nc(C(=O)N2CCC(N3CCCC3)CC2)c(C)cc1-c1cccc(C(F)(F)F)c1 [Example 8, [6-Methoxy-3-methyl-5-(3-trifluoromethyl-phenyl)-pyridin-2-yl]-(4-pyrrolidin-1-yl-piperidin-1-yl)-methanone] | 65 nM |
| Cc1cc(-c2cccc(C(F)(F)F)c2)c(C#N)nc1C(=O)N1CCC(N2CCCC2)CC1 [Example 42, 5-Methyl-6-(4-pyrrolidin-1-yl-piperidine-1-carbonyl)-3-(3-trifluoromethyl-phenyl)-pyridine-2-carbonitrile] | 26 nM |
| O=C(c1ncc(-c2cccc(C(F)(F)F)c2)cc1-c1cccc(C(F)(F)F)c1)N1CCC(N2CCCC2)CC1 [Example 15, [3,5-Bis-(3-trifluoromethyl-phenyl)-pyridin-2-yl]-(4-pyrrolidin-1-yl-piperidin-1-yl)-methanone] | 250 nM |
| Cc1cc(-c2cccc(C(F)(F)F)c2)c(Cl)nc1C(=O)N1CCC(N2CCCC2)CC1 [Example 3, [6-Chloro-3-methyl-5-(3-trifluoromethyl-phenyl)-pyridin-2-yl]-(4-pyrrolidin-1-yl-piperidin-1-yl)-methanone] | 4 nM |
| Cc1cc(-c2cccc(C(F)(F)F)c2)c(C(=O)NCCO)nc1C(=O)N1CCC(N2CCCC2)CC1 [Example 55, 5-Methyl-6-(4-pyrrolidin-1-yl-piperidine-1-carbonyl)-3-(3-trifluoromethyl-phenyl)-pyridine-2-carboxylic acid (2-hydroxy-ethyl)-amide] | 130 nM |
| Cc1cc(-c2cccc(C(F)(F)F)c2)c2nnnn2c1C(=O)N1CCC(N2CCCC2)CC1 [Example 65, [6-Methyl-8-(3-trifluoromethyl-phenyl)-tetrazolo[1,5-a]pyridin-5-yl]-(4-pyrrolidin-1-yl-piperidin-1-yl)-methanone] | 7.6 nM |

Source: US8227613B2, “Heteroaryl carboxamide derivatives” (Hoffmann-La Roche Inc., priority 2008, dated 2012)
